Results taken from patent US11911375B2, “Solid oral nicotine formulation” (Fertin Pharma A/S, priority 2020, dated 2024).

Columns and labels:
[1] = 25 degrees Celsius, atmospheric pressure and pH 7.0; cited from earlier work
[2] = Example 15: release of nicotine from NPR (16%) with 1 equivalent of AlCl3 or MgO in water, 28 mg/L nicotine, 25 degrees Celsius, 150 rpm, HPLC; assay type: physicochemical; settings: 1 equivalent of MgO; release from NPR (16%)
Experimental: The temperature of the water was 25 degrees Celsius throughout the experiment and stirring of 150 rpm was applied throughout the experiment. pH was measured at experiment start and end.
(§1) A relative low nicotine concentration is used in order to reduce the impact of equilibrium on both the release rate and effective release of nicotine from the ion-exchange resin.
Samples were taken out at varying timepoints and analyzed for nicotine content using standard HPLC. The result is presented as percentage of nicotine released.

[3] = compared with CaCl2; release from NPR (16%)
Experimental: The temperature of the water was 25 degrees Celsius throughout the experiment and stirring of 100 rpm was applied throughout the experiment. pH was measured at experiment start and end.
as §1
Samples were taken out at varying timepoints and analyzed for nicotine content using standard HPLC. The results are presented as percentage of nicotine released.

[Mg+2].[O-2] [MgO]
water-solubility [1]: below 5 grams per 100 mL of water
Effect of the presence of MgO on release of nicotine [2]: does not increase the release of nicotine

[Cl-].[Na+] [NaCl]
Effect of NaCl on the release of nicotine [3]: much lower effect on the release of nicotine
